Data on two compounds can be found in patent US5849863A, “Cytolytic bradykinin antagonists” (University of Colorado, priority 1995, dated 1998).

The IC50 is the concentration needed to halve the response being measured.

No end group written: not given here.

Data set [1] relates to guinea pig ileum. To be noted: agonist reference value; cited from earlier work.
Data set [2] has as its system intracellular Ca++ release, human lung cancer cell lines. The settings on record: Bunn et al. 1992; cited from earlier work.
Data set [3] concerns rat uterus. To be noted: agonist reference value; cited from earlier work.
Data set [4] concerns SCLC cell line SHP-77. Nature of the data set: Colorimetric MTT assay, growth of SCLC cell line SHP-77. The class given is cell-based, human. On the procedure:
(§1) The effectiveness of the antagonist compounds in inhibiting cancer cell growth in vitro was determined using a panel of human lung cancer cell lines: SCLC--SHP77, H345 and NSCLC--A549, H450; breast carcinoma McF7, normal human epithelial BEAS and normal human skin fibroblast FS 15 were used to study the specificity and cytotoxicity of the BK antagonist dimers. Cell lines were treated with various concentrations of dimers for 5 to 7 days and cell viability were measured with routine MTT assay. Cells treated with BK dimers were also be evaluated for apoptosis using our newly developed cytometric technique.
Cellular growth and survival was measured by a rapid colorimetric assay, based on the tetrazolium salt MTT, (3-(4,5-dimethylthiazol-2-yl)-2,5-diphenyl tetrazolium bromide), developed by Mosmann (J. of Immun. Methods, 65, 55-63, 1983) with minor modifications. Briefly, 1,000 normal lung fibroblasts or normal epithelial BEAS-2B cells, 1,000 or 5,000 viable NSCLC cell and 10,000 viable SCLC cell were plated in a 100 μl volume of growth medium in 96 well flat-bottomed microtiter plates. The cells were allowed to recover overnight. Bradykinin antagonists at various concentrations were added to the cells in triplicates and the plates were incubated at 37° C., 5% CO2 with 100% humidity. […] Absorbance at 490 nm was immediately determined using a scannning multiwell plate reader. […]

The nature of data set [5]: Stability in plasma. The class given is in vitro ADME.
Data set [6] concerns SCLC cell lines. Nature of the data set: Growth of SCLC cell lines (MTT assay). The class given is cell-based, human. The settings on record: result in words. As for the experimental part:
as §1
Cellular growth and survival was measured by a rapid colorimetric assay, based on the tetrazolium salt MTT, (3-(4,5-dimethylthiazol-2-yl)-2,5-diphenyl tetrazolium bromide), developed by Mosmann (J. of Immun. Methods, 65, 55-63, 1983) with minor modifications. Briefly, 1,000 normal lung fibroblasts or normal epithelial BEAS-2B cells, 1,000 or 5,000 viable NSCLC cell and 10,000 viable SCLC cell were plated in a 100 μl volume of growth medium in 96 well flat-bottomed microtiter plates. The cells were allowed to recover overnight. Bradykinin antagonists at various concentrations were added to the cells in triplicates and the plates were incubated at 37° C., 5% CO2 with 100% humidity. […] Absorbance at 490 nm was immediately determined using a scannning multiwell plate reader.
(Tetrazolium assays rely on reduction of a dye to a coloured formazan, in cell work by metabolically active cells.)

Data set [7] concerns Calcium flux in response to BK. Nature of the data set: Calcium flux assay, response to BK. The class given is cell-based. The settings on record: read-out: IC50 Ca2+ (BK). On the procedure:
(§2) Briefly, mechanically dispersed single cell suspensions of plateau phase cells (7 days after splitting) were suspended in 20 mM HEPES/BSS buffer (20 mM Hepes/140 mM NaCl/5mM KCI/1 mM MgCl2 /5 mM Glucose) adjusted to pH 6,8 at 37° C. The acetoxymethyl ester form of Indo-1 (Indo-AM) at 5 μM was incubated with the cells for 30 min at 37° C. and then diluted with 1:1 with 20 mM HEPES/BSS buffer, pH 7.4 to raise the final pH to 7.1 followed by a second 30-min incubation at 37° C.
(§3) UV excitation (80 mW at 360 nm) was delivered by a model INNOVA 90/5 argon ion laser (Coherent, Palo Alto, Calif.). […] Thus, the ratio of the 410 nm fluorescence/490 nm fluorescence constitutes a measure of the changes in calcium ions liberated form intracellular stores (Endoplasmic reticulum) in response to various stimuli. Viable, loaded cells were distinguished by the machine form debris, dead cells, and unloaded cells by forward angle and 90° light scatter and 490 nm fluorescence. […] Data were collected by the MDADS computer including 410 nm and 490 nm fluorescence intensities and the ratio of 410/490 fluorescence intensity was secured as a function of time. […] The data were analyzed by a program developed by Philip Jewett.
Background: Calcium flux is commonly read through the fluorescence of an indicator in the cells.

Data set [8] deals with Calcium flux in response to CCK. Kind of data set: Calcium flux assay, response to CCK or gastrin. The class given is cell-based. As for the experimental part: as §2, §3
Data set [9] relates to SCLC cell lines. Kind of data set: Apoptosis in SCLC / lung cancer cells. The class given is cell-based, human. The settings on record: inhibitory concentrations; data not shown.

Turning to “RPPGFSPFR [bradykinin, Arg^1 -Pro^2 -Pro^3 -Gly^4 -Phe^5 -Ser^6 -Pro^7 Phe^8 -Arg^9]”, the entries for the “pD2 (negative logarithm of the dose of bradykinin that causes half-maximal contraction)” value in data set [1] and in [3] were 7.4 and 7.9, respectively. The “stimulation of intracellular Ca++ release” value in data set [2] was “most potent peptide stimulant of intracellular Ca^++ release”.

Take `NC(N)=NCCC[C@@H](N)C(=O)N[C@@H](CCCN=C(N)N)C(=O)N1CCC[C@H]1C(=O)N1C[C@H](O)C[C@H]1C(=O)NCC(=O)N[C@@H](Cc1cccs1)C(=O)N[C@@H](CO)C(=O)N1Cc2ccccc2C[C@@H]1C(=O)N1[C@H](C(=O)N[C@@H](CCCN=C(N)N)C(=O)O)C[C@@H]2CCCC[C@@H]21` [Compound B116]: the “effect on SCLC growth” value in [4] (concentration up to 40 μM, SHP-77) is given as “little effect”. Besides, the IC50 was > 40000 nM in data set [4] (growth of SCLC cell line SHP-77) and 10 nM in [7]. For the same compound, in data set [5], the stable in plasma result was “stable in plasma”. The half-life in data set [5] (stability in plasma, read-out: Plasma t1/2) is > 24 h. Also, in data set [6], the “growth inhibition, SCLC cell lines” value is “no growth inhibition”. Moreover, the “% Inhibition CCK Ca2+” value in [8] is 0%. In addition, in [9], the “apoptotic response in SCLC cell lines” value was “no growth inhibition or apoptotic response”.
